Active and inactive are the calls of the source. No cut-off for these calls is given here.
Legend:
[1] = Apparent volume of distribution in Sprague-Dawley rat at 1 mg/kg, iv measured upto 24 hrs by LC-MS/MS analysis; format: ADME, organism-based; settings: in vivo, read-out: Vz
[2] = target: Dual specificity protein kinase CLK1 (Homo sapiens) (UniProt P49759); assay: Inhibition of CLK1 (unknown origin) at 1 uM relative to control
[3] = Cmax in Sprague-Dawley rat at 10 mg/kg, po measured upto 24 hrs by LC-MS/MS analysis; format: ADME, organism-based; settings: in vivo
[4] = target: Transcription initiation factor TFIID subunit 1-like (Homo sapiens) (UniProt Q8IZX4); assay: Inhibition of TAF1L (unknown origin) at 1 uM relative to control
Transcription initiation factor TFIID subunit 1-like (Homo sapiens), sequence (Q8IZX4 whole entry): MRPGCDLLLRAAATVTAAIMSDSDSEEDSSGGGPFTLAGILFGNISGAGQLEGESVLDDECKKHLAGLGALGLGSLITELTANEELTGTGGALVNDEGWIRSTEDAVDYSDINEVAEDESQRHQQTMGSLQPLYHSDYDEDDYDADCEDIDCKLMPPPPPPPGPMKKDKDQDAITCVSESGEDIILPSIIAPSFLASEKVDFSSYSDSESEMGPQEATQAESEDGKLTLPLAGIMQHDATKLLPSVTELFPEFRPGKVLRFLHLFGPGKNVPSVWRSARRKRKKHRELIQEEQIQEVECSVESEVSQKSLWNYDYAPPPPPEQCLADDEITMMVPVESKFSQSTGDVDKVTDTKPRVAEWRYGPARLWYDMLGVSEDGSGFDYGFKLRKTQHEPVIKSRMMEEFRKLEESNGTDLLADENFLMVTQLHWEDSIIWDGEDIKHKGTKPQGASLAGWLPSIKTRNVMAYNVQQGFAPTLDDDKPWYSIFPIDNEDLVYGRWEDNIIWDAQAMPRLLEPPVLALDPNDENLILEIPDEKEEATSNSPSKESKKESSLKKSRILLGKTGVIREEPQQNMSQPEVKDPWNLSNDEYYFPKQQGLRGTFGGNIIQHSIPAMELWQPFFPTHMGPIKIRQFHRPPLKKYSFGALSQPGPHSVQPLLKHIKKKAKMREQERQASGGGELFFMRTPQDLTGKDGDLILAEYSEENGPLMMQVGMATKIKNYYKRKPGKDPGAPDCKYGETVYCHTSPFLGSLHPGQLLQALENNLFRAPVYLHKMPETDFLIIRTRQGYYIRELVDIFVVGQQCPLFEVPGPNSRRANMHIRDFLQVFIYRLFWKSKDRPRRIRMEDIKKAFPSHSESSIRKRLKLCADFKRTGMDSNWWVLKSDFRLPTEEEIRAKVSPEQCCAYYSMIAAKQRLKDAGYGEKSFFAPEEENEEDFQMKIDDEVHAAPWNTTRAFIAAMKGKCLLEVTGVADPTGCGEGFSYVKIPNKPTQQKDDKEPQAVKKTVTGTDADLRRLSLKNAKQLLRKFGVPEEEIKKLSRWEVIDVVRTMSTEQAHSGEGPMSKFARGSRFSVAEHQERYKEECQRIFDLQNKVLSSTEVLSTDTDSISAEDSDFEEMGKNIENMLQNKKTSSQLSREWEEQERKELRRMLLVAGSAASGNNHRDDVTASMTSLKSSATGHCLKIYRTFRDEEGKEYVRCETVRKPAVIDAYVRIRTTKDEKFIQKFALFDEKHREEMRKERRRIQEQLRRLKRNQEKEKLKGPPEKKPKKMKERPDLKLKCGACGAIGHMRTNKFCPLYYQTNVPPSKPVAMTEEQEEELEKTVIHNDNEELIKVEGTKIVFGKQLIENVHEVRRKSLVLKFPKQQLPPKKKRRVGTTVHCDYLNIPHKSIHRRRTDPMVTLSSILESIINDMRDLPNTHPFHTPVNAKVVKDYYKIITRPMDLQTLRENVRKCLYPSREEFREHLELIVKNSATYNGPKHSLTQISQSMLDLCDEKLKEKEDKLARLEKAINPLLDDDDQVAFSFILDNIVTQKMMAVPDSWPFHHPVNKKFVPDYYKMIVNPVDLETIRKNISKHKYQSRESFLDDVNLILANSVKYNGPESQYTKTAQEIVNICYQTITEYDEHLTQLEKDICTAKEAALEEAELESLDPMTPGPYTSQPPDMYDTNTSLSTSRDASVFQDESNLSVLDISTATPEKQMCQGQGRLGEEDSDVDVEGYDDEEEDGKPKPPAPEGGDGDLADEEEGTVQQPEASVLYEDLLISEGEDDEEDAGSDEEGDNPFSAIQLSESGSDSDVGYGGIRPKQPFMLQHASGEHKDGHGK

Mus musculus = assay: In-vivo inhibition of CDK12-PARP1 in BALB/c mouse assessed as downregulation of PAR expression in tumor at 20 to 80 mg/kg, ip administered once daily for 16 days by Western blot analysis; format: functional, organism-based; settings: dose 20-80 mg/kg, time 16.0 day
MDA-MB-231 [5] = assay: Induction of cell cycle arrest in human MDA-MB-231 cells assessed as accumulation of cells at G1 phase at 5 uM measured after 24 hrs by PI staining based cytometry analysis (reference value: 68.55%); format: functional
MDA-MB-468 [6] = assay: Induction of apoptosis in human MDA-MB-468 cells assessed as upregulation of Bax expression incubated for 24 hrs; format: functional, cell-based; settings: dose 5-20 µM
[7] = target: Cyclin-dependent kinase 2 (Homo sapiens, UniProt P24941); assay: Inhibition of CDK2 (unknown origin)
[8] = target: T1, Cyclin-dependent kinase 12 (Homo sapiens, UniProt Q9NYV4); assay: Inhibition of CDK12 in human MDA-MB-436 cells assessed as effect on Pol II CTD at ser7 residue phosphorylation incubated for 24 hrs; format: cell-based; settings: dose 5-20 µM
Target sequence in this assay (Q9NYV4 whole entry, looked up): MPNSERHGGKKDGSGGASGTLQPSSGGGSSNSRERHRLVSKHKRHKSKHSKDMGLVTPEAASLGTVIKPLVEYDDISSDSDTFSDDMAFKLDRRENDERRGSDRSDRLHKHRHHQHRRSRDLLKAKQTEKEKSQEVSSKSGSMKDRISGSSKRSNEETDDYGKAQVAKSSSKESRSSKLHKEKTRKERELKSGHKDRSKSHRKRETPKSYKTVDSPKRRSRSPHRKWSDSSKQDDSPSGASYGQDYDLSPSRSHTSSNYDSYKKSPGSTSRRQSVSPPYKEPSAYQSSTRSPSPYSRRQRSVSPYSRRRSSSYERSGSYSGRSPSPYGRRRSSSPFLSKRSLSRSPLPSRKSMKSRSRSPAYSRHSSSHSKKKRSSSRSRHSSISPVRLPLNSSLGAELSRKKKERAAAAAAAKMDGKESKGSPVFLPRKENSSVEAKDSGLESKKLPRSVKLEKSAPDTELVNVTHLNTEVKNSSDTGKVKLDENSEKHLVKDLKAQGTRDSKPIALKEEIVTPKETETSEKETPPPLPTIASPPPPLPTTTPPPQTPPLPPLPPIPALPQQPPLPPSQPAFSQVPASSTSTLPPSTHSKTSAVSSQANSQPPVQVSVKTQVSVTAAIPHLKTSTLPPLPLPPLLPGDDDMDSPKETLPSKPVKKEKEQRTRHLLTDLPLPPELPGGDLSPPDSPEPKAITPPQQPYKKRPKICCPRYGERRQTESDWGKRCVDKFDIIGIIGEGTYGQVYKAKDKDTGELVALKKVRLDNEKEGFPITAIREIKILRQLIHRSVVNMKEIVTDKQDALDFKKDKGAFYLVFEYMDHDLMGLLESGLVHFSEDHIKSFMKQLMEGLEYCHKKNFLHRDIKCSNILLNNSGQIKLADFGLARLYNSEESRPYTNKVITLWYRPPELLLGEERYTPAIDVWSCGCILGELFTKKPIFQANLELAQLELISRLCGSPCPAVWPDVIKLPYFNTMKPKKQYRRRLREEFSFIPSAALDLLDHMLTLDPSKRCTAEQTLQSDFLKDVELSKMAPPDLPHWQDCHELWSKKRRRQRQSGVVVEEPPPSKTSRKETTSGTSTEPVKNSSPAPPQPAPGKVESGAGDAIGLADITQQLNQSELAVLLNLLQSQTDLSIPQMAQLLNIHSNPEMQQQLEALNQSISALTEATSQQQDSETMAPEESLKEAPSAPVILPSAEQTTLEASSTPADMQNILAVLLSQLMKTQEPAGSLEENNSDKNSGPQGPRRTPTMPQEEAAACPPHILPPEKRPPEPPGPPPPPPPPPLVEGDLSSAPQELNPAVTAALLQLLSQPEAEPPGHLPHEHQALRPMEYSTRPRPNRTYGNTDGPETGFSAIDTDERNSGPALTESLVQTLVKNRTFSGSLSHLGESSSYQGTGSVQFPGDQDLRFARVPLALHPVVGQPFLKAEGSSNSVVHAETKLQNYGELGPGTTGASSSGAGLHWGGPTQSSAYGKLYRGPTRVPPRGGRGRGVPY

[9] = target: Poly [ADP-ribose] polymerase 1 (Homo sapiens, UniProt P09874); assay: Inhibition of PARP1 (unknown origin) incubated for 1 hr by ELISA analysis
[10] = target: T1, Cyclin-dependent kinase 12; assay: Inhibition of CDK12 in human MDA-MB-231 cells assessed as effect on Pol II CTD at ser7 residue phosphorylation incubated for 24 hrs; format: cell-based; settings: dose 5-20 µM
Target sequence in this assay (Q9NYV4 whole entry, looked up): as above

MDA-MB-436 [11] = assay: Induction of cell cycle arrest in human MDA-MB-436 cells assessed as accumulation of cells at S phase at 20 uM measured after 24 hrs by PI staining based cytometry analysis (reference value: 25.43%); format: functional
MDA-MB-231 [12] = assay: Antiproliferative activity against human MDA-MB-231 cells assessed as decrease in number of colony formation at 10 uM measured after 24 days by crystal violet staining based analysis; format: functional, cell-based; settings: time 24.0 day
[13] = target: T1, Cyclin-dependent kinase 12; assay: Binding affinity to CDK12 in human MDA-MB-436 cells assessed as increase in protein thermal stabilization at 10 uM incubated for 6 hrs by CETSA based Western blot analysis; format: cell-based
Target sequence in this assay (Q9NYV4 whole entry, looked up): as above

MDA-MB-231 [14] = assay: Antiproliferative activity against human MDA-MB-231 cells assessed as inhibition of cell growth incubated for 24 hrs by MTT assay; format: functional, cell-based; settings: MDA-MB-231, 24 h
MDA-MB-231 [15] = assay: Induction of apoptosis in human MDA-MB-231 cells assessed as upregulation of Bax expression incubated for 24 hrs; format: functional, cell-based; settings: dose 5-20 µM
MDA-MB-231 [16] = assay: Inhibition of cell migration in human MDA-MB-231 cells assessed as upregulation of E-cadherin level by measuring fluorescence intensity at 10 uM incubated for 24 hrs by confocal microscopic analysis; format: functional, cell-based
[17] = Half life in Sprague-Dawley rat 10 mg/kg, po measured upto 24 hrs by LC-MS/MS analysis; format: ADME, organism-based; settings: in vivo
MDA-MB-231 [18] = assay: Antiproliferative activity against human MDA-MB-231 cells transfected with wild type PARP1 and CDK12 M816A mutant incubated for 24 hrs by MTT assay; format: functional, cell-based
[19] = Tmax in Sprague-Dawley rat at 1 mg/kg, iv measured upto 24 hrs by LC-MS/MS analysis; format: ADME, organism-based; settings: in vivo
MDA-MB-468 [20] = assay: Induction of apoptosis in human MDA-MB-468 cells incubated for 24 hrs by Annexin V/PI staining based flow cytometry analysis; format: functional, cell-based; settings: dose 5-20 µM
MDA-MB-436 [21] = assay: Downregulation of Pol II CTD at ser2 residue expression in human MDA-MB-436 cells incubated for 24 hrs; format: functional, cell-based; settings: dose 5-20 µM
MDA-MB-231 [22] = assay: Induction of […] in human MDA-MB-231 cells assessed as increase in gamma-H2AX foci formation at 10 uM incubated for 24 hrs by confocal laser scanning microscopic analysis; format: functional, cell-based
MDA-MB-231 [23] = assay: Antiproliferative activity against human MDA-MB-231 cells assessed as reduction in EDU-positive cells at 10 uM […]-staining based analysis; format: functional, cell-based
MDA-MB-231 [24] = assay: Induction of apoptosis in human MDA-MB-231 cells assessed as downregulation of Bcl-2 expression incubated for 24 hrs; format: functional, cell-based; settings: dose 5-20 µM
MDA-MB-468 [25] = assay: Antiproliferative activity against human MDA-MB-468 cells assessed as decrease in number of colony formation at 10 uM measured after 24 days by crystal violet staining based analysis; format: functional, cell-based; settings: time 24.0 day
MDA-MB-231 [26] = assay: Induction of cell cycle arrest in human MDA-MB-231 cells assessed as accumulation of cells at G2 phase at 5 uM measured after 24 hrs by PI staining based cytometry analysis (reference value: 8.44 %); format: functional
[27] = target: Cyclin-dependent kinase 1 (Homo sapiens, UniProt P06493); assay: Inhibition of CDK1 (unknown origin)
Cyclin-dependent kinase 1, sequence (P06493 whole entry): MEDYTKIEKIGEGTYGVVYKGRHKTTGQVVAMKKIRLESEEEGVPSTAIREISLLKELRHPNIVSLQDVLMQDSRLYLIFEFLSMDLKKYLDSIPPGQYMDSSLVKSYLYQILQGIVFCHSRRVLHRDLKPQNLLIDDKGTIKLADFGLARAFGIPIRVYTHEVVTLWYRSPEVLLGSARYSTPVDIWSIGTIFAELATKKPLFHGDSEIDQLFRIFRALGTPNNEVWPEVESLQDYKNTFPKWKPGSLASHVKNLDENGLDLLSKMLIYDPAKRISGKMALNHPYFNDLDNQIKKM

[28] = Cmax in Sprague-Dawley rat at 1 mg/kg, iv measured upto 24 hrs by LC-MS/MS analysis; format: ADME, organism-based; settings: in vivo
[29] = target: T1, Cyclin-dependent kinase 12; assay: Inhibition of CDK12 (unknown origin) in presence of ATP by kinase-glo plus luminescent assay
Target sequence in this assay (Q9NYV4 whole entry): as the sequence (Q9NYV4 whole entry, looked up) above

[30] = Metabolic stability in human liver microsome assessed as intrinsic clearance in presence of NADPH incubated upto 60 mins by LC-MS/MS analysis; format: ADME; settings: liver microsomes, read-out: CLH
[31] = Metabolic stability in BALB/c mouse liver microsome assessed as half life in presence of NADPH incubated upto 60 mins by LC-MS/MS analysis; format: ADME; settings: liver microsomes
MDA-MB-468 [32] = assay: Inhibition of cell migration in human MDA-MB-468 cells assessed as wound closure at 10 uM incubated for 24 hrs by wound healing assay; format: functional, cell-based
MDA-MB-468 [33] = assay: […] DNA repair in human MDA-MB-468 cells assessed as […] formation at 10 uM incubated for 24 hrs by confocal laser scanning microscopic analysis; format: functional, cell-based
[34] = Toxicity in BALB/c mouse xenografted with human MDA-MB-231 cells assessed as morphological changes in lung at 20 to 80 mg/kg, ip administered once daily for 16 days by H and E staining based analysis; format: organism-based; settings: in vivo, 384 h, dose 20-80 mg/kg, time 16 day
[35] = target: MAP kinase-activated protein kinase 2 (Homo sapiens) (UniProt P49137); assay: Inhibition of MAPK2 (unknown origin) at 1 uM relative to control
MAP kinase-activated protein kinase 2 (Homo sapiens), sequence (P49137 whole entry, looked up): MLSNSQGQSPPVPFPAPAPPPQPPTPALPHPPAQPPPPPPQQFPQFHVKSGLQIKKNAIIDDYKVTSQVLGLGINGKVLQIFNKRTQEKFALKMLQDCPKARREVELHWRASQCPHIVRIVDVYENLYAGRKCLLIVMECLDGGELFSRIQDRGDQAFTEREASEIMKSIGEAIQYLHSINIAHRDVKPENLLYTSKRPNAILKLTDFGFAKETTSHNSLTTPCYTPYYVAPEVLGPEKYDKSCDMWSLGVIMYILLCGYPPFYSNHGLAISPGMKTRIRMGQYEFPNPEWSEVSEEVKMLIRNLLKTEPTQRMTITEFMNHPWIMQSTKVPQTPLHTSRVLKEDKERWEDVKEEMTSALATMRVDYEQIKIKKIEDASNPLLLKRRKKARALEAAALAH

[36] = Metabolic stability in human liver microsome assessed as half life in presence of NADPH incubated upto 60 mins by LC-MS/MS analysis; format: ADME; settings: liver microsomes
MDA-MB-468 [37] = assay: Induction of […] in human MDA-MB-468 cells assessed as increase in gamma-H2AX foci formation at 10 uM incubated for 24 hrs by confocal laser scanning microscopic analysis; format: functional, cell-based

Dual specificity protein kinase CLK1 (Homo sapiens), sequence (P49759 whole entry, looked up): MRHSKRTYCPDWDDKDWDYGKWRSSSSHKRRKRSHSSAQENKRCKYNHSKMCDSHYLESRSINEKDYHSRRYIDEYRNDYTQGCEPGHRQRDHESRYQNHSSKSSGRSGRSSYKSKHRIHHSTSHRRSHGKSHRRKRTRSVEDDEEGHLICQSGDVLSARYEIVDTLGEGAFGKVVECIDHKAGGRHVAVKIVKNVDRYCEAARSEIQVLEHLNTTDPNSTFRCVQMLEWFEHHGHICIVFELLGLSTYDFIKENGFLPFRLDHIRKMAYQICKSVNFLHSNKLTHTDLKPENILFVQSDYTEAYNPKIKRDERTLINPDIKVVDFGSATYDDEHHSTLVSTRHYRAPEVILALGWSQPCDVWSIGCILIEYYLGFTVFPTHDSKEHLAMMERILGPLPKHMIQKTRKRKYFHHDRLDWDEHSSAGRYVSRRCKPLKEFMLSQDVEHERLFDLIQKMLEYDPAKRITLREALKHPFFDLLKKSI

Vd [1]: 3.22 L/kg
inhibition [2]: > 60%
Cmax [3]: 12.2 ng/mL
inhibition [4]: > 60%
IC50 [7]: 0.689 µM
inhibition [8]: Dose-Dependent Effect
IC50 [9]: 0.034 µM
inhibition [10]: Dose-Dependent Effect
Activity [13]: Active
IC50 (MDA-MB-231 [14]): 8.5 µM
half-life [17]: 2.39 h
Tmax [19]: 4.8 min
IC50 [27]: 0.517 µM
Cmax [28]: 2130 ng/mL
IC50 [29]: 0.285 µM
CLint scaled [30]: 7.61 mL/min/kg
half-life [31]: 1.88 h
inhibition [35]: > 60%
half-life [36]: 3.51 h
SMILES: NC(=O)c1cccc2[nH]c(NC(=O)c3cccc(C(=O)N4CCC(Nc5ncc(I)cn5)CC4)c3)nc12
inhibition (Mus musculus): Active
Activity (MDA-MB-231 [5]): 63.3%
Activity (MDA-MB-468 [6]): Dose-Dependent Effect
Activity (MDA-MB-436 [11]): 21.2%
Activity (MDA-MB-231 [12]): Active
Activity (MDA-MB-231 [15]): Dose-Dependent Effect
inhibition (MDA-MB-231 [16]): Active
Activity (MDA-MB-231 [18]): Active
Activity (MDA-MB-468 [20]): Dose-Dependent Effect
Activity (MDA-MB-436 [21]): Dose-Dependent Effect
Activity (MDA-MB-231 [22]): Active
Activity (MDA-MB-231 [23]): Active
Activity (MDA-MB-231 [24]): Dose-Dependent Effect
Activity (MDA-MB-468 [25]): Active
Activity (MDA-MB-231 [26]): 16.84%
inhibition (MDA-MB-468 [32]): Active
Activity (MDA-MB-468 [33]): Active
Activity [34]: Non-Toxic
Activity (MDA-MB-468 [37]): Active

Reference: ChEMBL document CHEMBL5625183, “Discovery of a novel dual-target inhibitor of CDK12 and PARP1 that induces synthetic lethality for treatment of triple-negative breast cancer” (Eur J Med Chem, 2023)
